What was measured:
Experiment in all cases: Growth on agar plates with different concentrations of AgNO3 or HAuCl4 (resistance assay)
Assay type in all cases: cell-based
Parameters in all cases: key: x = growth; (x) = weak growth
[1] = test system: Bacillus sphaericus
From the text: (§1) The growth of several microorganisms (e.g. Escherichia coli, Xanthomonas campestris, Cupriavidus metallidurans and Bacillus sphaericus) was monitored in the presence of the lids with coated pins. Escherichia coli and Xanthomonas campestris served as negative controls with regard to metal binding; Cupriavidus metallidurans as positive control. Additionally, Bacillus sphaericus was used as a positive control for silver binding. For Bacillus sphaericus the binding to gold particles and gold coated surfaces was observed earlier by the inventors. Cupriavidus metallidurans is a gram-negative, rod-shaped bacterium which has gold binding capacity as described in the literature (Reith et al., 2006). The species name metallidurans indicates its resistance to heavy metals and its ability to survive in the presence of gold and silver was investigated previously (Reith F, Rogers S L, McPhail D C and Webb D. (2006) “Biomineralization of gold: biofilms on bacterioform gold.” Science 313(5784): 233-236; Reith F, Etschmann B, Grosse C, Moors H, Benotmane M A, Monsieurs P, Grass G, Doonan C, Vogt S, Lai B, Martinez-Criado G, George G N, Nies D H, Mergeay M, Pring A, Southam G and Brugger J. (2009) “Mechanisms of gold biomineralization in the bacterium Cupriavidus metallidurans.” Proc Natl Acad Sci 106(42):17757-17762; Ledrich ML1, Stemmler S, Laval-Gilly P, Foucaud L, and Falla J (2005) “Precipitation of silver-thiosulfate complex and immobilization of silver by Cupriavidus metallidurans CH34.” Biometals 18(6): 643-650).
(§2) To investigate the tolerated concentration of silver and gold, the microorganisms were propagated in liquid medium and streaked on agar plates with different concentrations of AgNO3 or HAuCl4, respectively.

[2] = test system: Cupriavidus metallidurans
From the text: as §1, §2

[3] = test system: Escherichia coli
From the text: as §1, §2

[4] = test system: Xanthomonas campestris
From the text: as §1, §2

In the case of `O=[N+]([O-])[O-].[Ag+]` [AgNO3], the “Microbial growth dependence on AgNO3 concentration” value ([1]; 2 μM AgNO3, agar plate) is reported as “x”, the “Microbial growth dependence on AgNO3 concentration” value ([1]; 10 μM AgNO3, agar plate) is reported as “x” and the “Microbial growth dependence on AgNO3 concentration” value ([1]; 20 μM AgNO3, agar plate) is reported as “x”. The “Microbial growth dependence on AgNO3 concentration” value ([1]; 50 μM AgNO3, agar plate) was “x”, the “Microbial growth dependence on AgNO3 concentration” value ([1]; 100 μM AgNO3, agar plate) was “x” and the “Microbial growth dependence on AgNO3 concentration” value ([1]; 150 μM AgNO3, agar plate) was “x”. For the same compound, the “Microbial growth dependence on AgNO3 concentration” value ([2]; 2 μM AgNO3, agar plate) was “x”, the “Microbial growth dependence on AgNO3 concentration” value ([2]; 10 μM AgNO3, agar plate) was “x” and the “Microbial growth dependence on AgNO3 concentration” value ([2]; 20 μM AgNO3, agar plate) was “x”. The “Microbial growth dependence on AgNO3 concentration” value ([2]; 50 μM AgNO3, agar plate) was “x”, the “Microbial growth dependence on AgNO3 concentration” value ([2]; 100 μM AgNO3, agar plate) was “x” and the “Microbial growth dependence on AgNO3 concentration” value ([2]; 150 μM AgNO3, agar plate) was “x”. For the same compound, the “Microbial growth dependence on AgNO3 concentration” value ([2]; 200 μM AgNO3, agar plate) was “(x)”, the “Microbial growth dependence on AgNO3 concentration” value ([3]; 2 μM AgNO3, agar plate) was “x” and the “Microbial growth dependence on AgNO3 concentration” value ([3]; 10 μM AgNO3, agar plate) was “x”. The “Microbial growth dependence on AgNO3 concentration” value ([3]; 20 μM AgNO3, agar plate) was “x”, the “Microbial growth dependence on AgNO3 concentration” value ([3]; 50 μM AgNO3, agar plate) was “x” and the “Microbial growth dependence on AgNO3 concentration” value ([3]; 100 μM AgNO3, agar plate) was “x”. The “Microbial growth dependence on AgNO3 concentration” value ([4]; 2 μM AgNO3, agar plate) was “x”, the “Microbial growth dependence on AgNO3 concentration” value ([4]; 10 μM AgNO3, agar plate) was “x” and the “Microbial growth dependence on AgNO3 concentration” value ([4]; 20 μM AgNO3, agar plate) was “x”. The “Microbial growth dependence on AgNO3 concentration” value ([4]; 50 μM AgNO3, agar plate) was “x” and the “Microbial growth dependence on AgNO3 concentration” value ([4]; 100 μM AgNO3, agar plate) was “x”.

`[Au+3].[Cl-].[Cl-].[Cl-].[Cl-].[H+]` [HAuCl4] was tested, and the “Microbial growth dependence on HAuCl4 concentration” value ([1]; 2 μM HAuCl4, agar plate) was “x”, the “Microbial growth dependence on HAuCl4 concentration” value ([1]; 20 μM HAuCl4, agar plate) was “x” and the “Microbial growth dependence on HAuCl4 concentration” value ([1]; 100 μM HAuCl4, agar plate) was “x”. The “Microbial growth dependence on HAuCl4 concentration” value ([1]; 200 μM HAuCl4, agar plate) was “x”, the “Microbial growth dependence on HAuCl4 concentration” value ([2]; 2 μM HAuCl4, agar plate) was “x” and the “Microbial growth dependence on HAuCl4 concentration” value ([2]; 20 μM HAuCl4, agar plate) was “x”. The “Microbial growth dependence on HAuCl4 concentration” value ([2]; 100 μM HAuCl4, agar plate) was “x”, the “Microbial growth dependence on HAuCl4 concentration” value ([2]; 200 μM HAuCl4, agar plate) was “x” and the “Microbial growth dependence on HAuCl4 concentration” value ([2]; 300 μM HAuCl4, agar plate) was “x”. The “Microbial growth dependence on HAuCl4 concentration” value ([2]; 400 μM HAuCl4, agar plate) was “x”, the “Microbial growth dependence on HAuCl4 concentration” value ([2]; 500 μM HAuCl4, agar plate) was “x” and the “Microbial growth dependence on HAuCl4 concentration” value ([3]; 2 μM HAuCl4, agar plate) was “x”. For the same compound, the “Microbial growth dependence on HAuCl4 concentration” value ([3]; 20 μM HAuCl4, agar plate) was “x”, the “Microbial growth dependence on HAuCl4 concentration” value ([3]; 100 μM HAuCl4, agar plate) was “x” and the “Microbial growth dependence on HAuCl4 concentration” value ([3]; 200 μM HAuCl4, agar plate) was “x”. The “Microbial growth dependence on HAuCl4 concentration” value ([3]; 300 μM HAuCl4, agar plate) was “x”, the “Microbial growth dependence on HAuCl4 concentration” value ([4]; 2 μM HAuCl4, agar plate) was “x” and the “Microbial growth dependence on HAuCl4 concentration” value ([4]; 20 μM HAuCl4, agar plate) was “x”. The “Microbial growth dependence on HAuCl4 concentration” value ([4]; 100 μM HAuCl4, agar plate) was “x”, the “Microbial growth dependence on HAuCl4 concentration” value ([4]; 200 μM HAuCl4, agar plate) was “x” and the “Microbial growth dependence on HAuCl4 concentration” value ([4]; 300 μM HAuCl4, agar plate) was “x”.

— patent US11718892B2, “Biological ore processing for the isolation of heavy metals” (CyPlus GmbH, priority 2015, dated 2023)
